A short description of test [1]: Binding affinity to sigma-2 receptor in human MCF7 cells. The format is cell-based.
Test [2] relates to RPMI-8226. Put plainly: Cytotoxicity against human RPMI8226 cells assessed as cell viability after 72 hrs by MTT assay. The format is functional, cell-based. The note with it: for IC50: RPMI-8226, 72 h.
In test [3] the test system is RPMI-8226. Put plainly: Induction of autophagy in human RPMI8226 cells assessed as p62 protein level at 23 uM after 6 to 96 hrs by Western blotting analysis in presence of alpha-tocopherol. The format is functional, cell-based.
For test [4], the system named is RPMI-8226. Put plainly: Induction of lipid peroxidation in human RPMI8226 cells at 23 uM after 5 to 24 hrs by flow cytometric analysis. The format is functional, cell-based. (In general: Flow cytometry measures light scatter and fluorescence of single cells or particles in a stream.)
For test [5], the system named is RPMI-8226. The experiment in a line: Induction of autophagy in human RPMI8226 cells assessed as […] protein expression at 23 uM after 48 hrs by Western blotting analysis in presence of wortmannin. The format is functional, cell-based.
A short description of test [6]: Displacement of [3H]-DTG from sigma-2 receptor in human RT4 cell homogenates in presence of (+)-pentazocine. The format is tissue-based. The following applies: rt-4.
Test [7] concerns RPMI-8226. The experiment in a line: Induction of apoptosis in human RPMI8226 cells at 23 uM after 6 hrs by annexin V-FITC/propidium iodide staining-based flow cytometric analysis. The format is functional, cell-based.
Test [8] has as its system RPMI-8226. Put plainly: Induction of apoptosis in human RPMI8226 cells assessed as early apoptotic cells at 23 uM after 24 to 48 hrs by annexin V/propidium iodide staining-based flow cytometric analysis in presence of alpha-tocopherol. The format is functional, cell-based.
Test [9] deals with RPMI-8226. Put plainly: Induction of lipid peroxidation in human RPMI8226 cells at 23 uM after 5 to 24 hrs by flow cytometric analysis in presence of alpha-tocopherol. The format is functional, cell-based.
For test [10], the system named is RPMI-8226. The experiment in a line: Induction of apoptosis in human RPMI8226 cells assessed as chromatin condensation at 23 uM after 24 to 48 hrs by DAPI staining-based fluorescence microscopic analysis. The format is functional, cell-based.
In test [11] the test system is HL-60. Put plainly: Cytotoxicity against human HL60 cells assessed as cell viability at 20 uM after 72 hrs by MTT assay. The format is functional, cell-based. Background: Tetrazolium dyes change colour on reduction, which living cells bring about.
Test [12] has as its system RPMI-8226. Put plainly: Selectivity ratio of Ki for sigma-2 receptor in human RT4 cell homogenates to Ki for sigma-1 receptor in human RPMI8226 cells. The format is cell-based.
For test [13], the system named is RPMI-8226. The experiment in a line: Induction of autophagy in human RPMI8226 cells assessed as […] protein level at 23 uM after 6 to 96 hrs by Western blotting analysis in presence of alpha-tocopherol. The format is functional, cell-based. On the technique in general: Immunoblotting shows a protein as a band on a membrane.
Test [14] deals with RPMI-8226. Put plainly: Induction of autophagy in human RPMI8226 cells assessed as […] protein expression at 23 uM after 48 hrs by Western blotting analysis in presence of 3-methyladenine. The format is functional, cell-based.
The subject of test [15] is RPMI-8226. Put plainly: Induction of apoptosis in human RPMI8226 cells assessed as early/late apoptotic cells at 23 uM after 48 hrs by annexin V/propidium iodide staining-based flow cytometric analysis in presence of alpha-tocopherol. The format is functional, cell-based.
Test [16] deals with RPMI-8226. Put plainly: Induction of autophagy in human RPMI8226 cells assessed as p62 protein expression at 23 uM after 48 hrs by Western blotting analysis in presence of wortmannin. The format is functional, cell-based.
For test [17], the system named is RPMI-8226. Put plainly: Induction of reactive oxygen species generation in human RPMI8226 cells at 23 uM after 0.5 to 24 hrs by DCFDA dye-based flow cytometric analysis. The format is functional, cell-based.
The subject of test [18] is RPMI-8226. Put plainly: Induction of apoptosis in human RPMI8226 cells assessed as increase in apoptotic cells at 23 uM after 24 to 48 hrs by annexin V-FITC/propidium iodide staining-based flow cytometric analysis. The format is functional, cell-based.
Test [19] concerns RPMI-8226. The experiment in a line: Induction of apoptosis in human RPMI8226 cells assessed as caspase-9 activation at 23 uM by flow cytometric analysis in presence of […]. The format is functional, cell-based. The note with it: TDE = time-dependent effect.
Test [20] in a line: Selectivity ratio of Ki for sigma-2 receptor in rat liver homogenates to Ki for sigma-1 receptor in guinea pig brain homogenates. The format is tissue-based.
For test [21], the system named is RPMI-8226. Put plainly: Induction of apoptosis in human RPMI8226 cells assessed as early apoptotic cells at 23 uM after 48 hrs by annexin V-FITC/propidium iodide staining-based flow cytometric analysis. The format is functional, cell-based.
Test [22] concerns the target Sigma non-opioid intracellular receptor 1 (Cavia porcellus, UniProt Q60492). Put plainly: Displacement of [3H]-(+)-pentazocine from sigma-1 receptor in guinea pig brain homogenates. The format is tissue-based.
Test [23] has as its system RPMI-8226. The experiment in a line: Induction of autophagy in human RPMI8226 cells assessed as […] at 23 uM by Western blotting analysis. The format is functional, cell-based. The note with it: TDE = time-dependent effect.
Test [24] relates to RPMI-8226. The experiment in a line: Induction of autophagy in human RPMI8226 cells assessed as p62 protein expression at 23 uM after 6 to 96 hrs by Western blotting analysis. The format is functional, cell-based.
The subject of test [25] is RPMI-8226. Put plainly: Induction of apoptosis in human RPMI8226 cells assessed as caspase-8 activation at 23 uM by flow cytometric analysis in presence of FITC-IETD-FMK. The format is functional, cell-based. The note with it: TDE = time-dependent effect.
Test [26] relates to RPMI-8226. Put plainly: Induction of apoptosis in human RPMI8226 cells assessed as decrease in mitochondrial membrane potential at 23 uM by JC-1 staining-based flow cytometric analysis. The format is functional, cell-based. The following applies: TDE = time-dependent effect.
For test [27], the target named is Sigma non-opioid intracellular receptor 1 (Homo sapiens, UniProt Q99720). Put plainly: Displacement of [3H]-(+)-pentazocine from sigma-1 receptor in human RPMI8226 cells. The format is cell-based, RPMI-8226.
Sequence of Sigma non-opioid intracellular receptor 1 (Homo sapiens, UniProt Q99720) (Q99720 whole entry): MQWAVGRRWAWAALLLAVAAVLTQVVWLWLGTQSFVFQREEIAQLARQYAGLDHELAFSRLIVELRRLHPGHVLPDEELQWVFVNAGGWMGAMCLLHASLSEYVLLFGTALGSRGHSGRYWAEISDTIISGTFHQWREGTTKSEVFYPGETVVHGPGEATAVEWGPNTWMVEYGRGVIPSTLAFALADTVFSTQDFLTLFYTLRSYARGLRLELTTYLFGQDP
In test [28] the test system is RPMI-8226. The experiment in a line: Induction of autophagy in human RPMI8226 cells assessed as p62 protein expression at 23 uM after 48 hrs by Western blotting analysis in presence of 3-methyladenine. The format is functional, cell-based.
Test [29] is described as follows: Displacement of [3H]-DTG from sigma-2 receptor in rat liver homogenates in presence of (+)-pentazocine. The format is tissue-based.
Test [30] concerns RPMI-8226. The experiment in a line: Induction of apoptosis in human RPMI8226 cells assessed as caspase-3 activation at 23 uM by flow cytometric analysis in presence of […]. The format is functional, cell-based. The following applies: TDE = time-dependent effect.
Test [31] concerns RPMI-8226. Put plainly: Induction of apoptosis in human RPMI8226 cells assessed as early apoptotic cells at 23 uM after 48 hrs by annexin V-FITC/propidium iodide staining-based flow cytometric analysis in presence of wortmannin. The format is functional, cell-based.

Activity calls are given as the source filed them. The rule behind the calls is not given here.

Sequence of Sigma non-opioid intracellular receptor 1 (Cavia porcellus, UniProt Q60492) (Q60492 whole entry): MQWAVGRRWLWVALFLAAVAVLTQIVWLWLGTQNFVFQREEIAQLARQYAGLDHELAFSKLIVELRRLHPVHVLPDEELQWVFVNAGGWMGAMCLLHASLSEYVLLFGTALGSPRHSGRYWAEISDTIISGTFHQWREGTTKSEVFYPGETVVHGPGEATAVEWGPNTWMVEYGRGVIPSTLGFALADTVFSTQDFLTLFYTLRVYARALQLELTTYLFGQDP

Broadly, the Ki is a dissociation constant, usually derived from enzyme kinetics or from competition with a known ligand. Broadly, the IC50 is the concentration needed to halve the response being measured. For `COc1cccc2c1CCCC2CCCN1CCN(C2CCCCC2)CC1` (centres undefined), the Ki in test [1] came out at 0.28 nM. In test [2], the IC50 came to 9290 nM.

On to `OCC[C@@H]1CN(CC2CCCCC2)CCN1Cc1ccc(-c2ccccc2)cc1`, for which the result in test [3], in test [7], in [8], in test [9], in [11] and in test [13] was inactive. Moreover, the result in test [15], in test [16], in test [17], in test [24] and in [28] was inactive. The outcome in test [4], in test [5], in test [10], in test [14], in test [18] and in [21] was Active. In [31], the outcome was Active. Moreover, the Ki came out at 39 nM in test [6], 7.8 nM in test [22], 29 nM in [27] and 38 nM in test [29]. Besides, the Ratio Ki came out at 1.3 in [12] and 4.5 in [20]. Moreover, the Activity entry in test [19] is “tde”; in [23] it was “tde”; in test [25], “tde”; in test [26], “tde”; in test [2], “Dose-dependent effect”; in [30], “tde”. Also, the IC50 in test [2] stood at 13000 nM.

In the case of `COc1ccc(CN2CCN(Cc3ccccc3)CC2)cc1`, the Ki in test [29] amounted to 161 nM.

These data come from ChEMBL document CHEMBL3102830, “Involvement of apoptosis and autophagy in the death of RPMI 8226 multiple myeloma cells by two enantiomeric sigma receptor ligands” (Bioorg Med Chem, 2014).
